In paper PMC6437697 (Journal of Medicinal Chemistry, 2019) one finds remaining binding data, which are given here for 3 compounds.

Common to all, as to test: KINOMEscan
Holding throughout (format): binding
Holding throughout (conditions): read-out: % control activity remaining

Experiment [1] has as its target T1, RSK1(Kin.Dom.1-N-terminal) (Homo sapiens, UniProt Q15418).
T1 construct: RSK1(Kin.Dom.1-N-terminal); purchased Eurofins DiscoverX KINOMEscan

The target of experiment [2] is T2, TYK2(JH2domain-pseudokinase) (Homo sapiens, UniProt P29597).
T2 construct: TYK2(JH2domain-pseudokinase); purchased Eurofins DiscoverX KINOMEscan

For a further experiment, the target named is T3, CSNK1A1L (Homo sapiens, UniProt Q8N752).
T3 construct: purchased Eurofins DiscoverX KINOMEscan
T3 sequence (Q8N752 1-337): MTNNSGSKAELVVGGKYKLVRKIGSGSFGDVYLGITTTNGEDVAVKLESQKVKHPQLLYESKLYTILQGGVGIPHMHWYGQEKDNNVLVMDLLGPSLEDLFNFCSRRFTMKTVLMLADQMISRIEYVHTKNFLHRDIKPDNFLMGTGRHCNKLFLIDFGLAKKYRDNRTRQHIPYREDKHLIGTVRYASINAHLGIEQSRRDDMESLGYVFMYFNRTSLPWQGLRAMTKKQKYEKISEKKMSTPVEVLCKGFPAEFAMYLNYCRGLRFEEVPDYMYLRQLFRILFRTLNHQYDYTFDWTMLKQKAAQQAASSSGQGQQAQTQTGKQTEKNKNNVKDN

In the next experiment the target is T4, PYK2 (Homo sapiens, UniProt Q14289).
T4 construct: purchased Eurofins DiscoverX KINOMEscan

In a further experiment the target is T5, PIK3CA(H1047L) (Homo sapiens, UniProt P42336, H1047L).
T5 construct: purchased Eurofins DiscoverX KINOMEscan

The target in the next experiment is T6, PHKG1 (Homo sapiens, UniProt Q16816).
T6 construct: purchased Eurofins DiscoverX KINOMEscan

Another experiment addresses T7, EIF2AK1 (Homo sapiens, UniProt Q9BQI3).
T7 construct: purchased Eurofins DiscoverX KINOMEscan

A further experiment concerns the target T8, PCTK1 (Homo sapiens, UniProt Q00536).
T8 construct: purchased Eurofins DiscoverX KINOMEscan

Another experiment concerns the target T9, PRKCH (Homo sapiens, UniProt P24723).
T9 construct: purchased Eurofins DiscoverX KINOMEscan

In another experiment the target is T10, LATS1 (Homo sapiens, UniProt O95835).
T10 construct: purchased Eurofins DiscoverX KINOMEscan
T10 sequence (O95835 1-1130): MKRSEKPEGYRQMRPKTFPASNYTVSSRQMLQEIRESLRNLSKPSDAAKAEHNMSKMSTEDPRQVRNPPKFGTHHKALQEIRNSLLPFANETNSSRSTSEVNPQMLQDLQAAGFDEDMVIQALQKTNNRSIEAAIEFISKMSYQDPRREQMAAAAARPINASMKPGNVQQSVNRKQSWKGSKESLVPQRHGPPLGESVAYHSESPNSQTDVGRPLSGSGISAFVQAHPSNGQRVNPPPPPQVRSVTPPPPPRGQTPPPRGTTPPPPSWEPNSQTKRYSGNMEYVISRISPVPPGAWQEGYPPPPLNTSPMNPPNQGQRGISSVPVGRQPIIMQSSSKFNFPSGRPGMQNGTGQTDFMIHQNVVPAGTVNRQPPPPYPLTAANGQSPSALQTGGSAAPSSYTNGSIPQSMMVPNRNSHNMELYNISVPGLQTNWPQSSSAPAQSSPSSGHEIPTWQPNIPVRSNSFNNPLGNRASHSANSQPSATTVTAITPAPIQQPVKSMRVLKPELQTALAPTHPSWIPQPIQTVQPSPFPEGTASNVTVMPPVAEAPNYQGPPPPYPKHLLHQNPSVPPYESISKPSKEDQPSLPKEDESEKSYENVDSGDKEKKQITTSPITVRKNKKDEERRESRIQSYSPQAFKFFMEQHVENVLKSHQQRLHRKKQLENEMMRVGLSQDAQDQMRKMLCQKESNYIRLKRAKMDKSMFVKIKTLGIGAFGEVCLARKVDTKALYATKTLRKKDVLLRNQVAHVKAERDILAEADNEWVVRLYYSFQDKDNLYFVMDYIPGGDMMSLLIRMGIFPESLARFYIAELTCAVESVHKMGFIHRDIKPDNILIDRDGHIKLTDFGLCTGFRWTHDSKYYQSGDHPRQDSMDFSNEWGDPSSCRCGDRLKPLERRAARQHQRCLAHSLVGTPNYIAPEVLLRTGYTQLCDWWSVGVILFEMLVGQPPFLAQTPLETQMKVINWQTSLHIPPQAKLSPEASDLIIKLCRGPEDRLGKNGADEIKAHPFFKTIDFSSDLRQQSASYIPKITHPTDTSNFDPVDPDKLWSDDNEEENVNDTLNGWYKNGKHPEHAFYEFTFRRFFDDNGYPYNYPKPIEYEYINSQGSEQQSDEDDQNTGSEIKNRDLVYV

In another experiment the target is T11, IKK-beta (Homo sapiens, UniProt O14920).
T11 construct: purchased Eurofins DiscoverX KINOMEscan
T11 sequence (O14920 1-756): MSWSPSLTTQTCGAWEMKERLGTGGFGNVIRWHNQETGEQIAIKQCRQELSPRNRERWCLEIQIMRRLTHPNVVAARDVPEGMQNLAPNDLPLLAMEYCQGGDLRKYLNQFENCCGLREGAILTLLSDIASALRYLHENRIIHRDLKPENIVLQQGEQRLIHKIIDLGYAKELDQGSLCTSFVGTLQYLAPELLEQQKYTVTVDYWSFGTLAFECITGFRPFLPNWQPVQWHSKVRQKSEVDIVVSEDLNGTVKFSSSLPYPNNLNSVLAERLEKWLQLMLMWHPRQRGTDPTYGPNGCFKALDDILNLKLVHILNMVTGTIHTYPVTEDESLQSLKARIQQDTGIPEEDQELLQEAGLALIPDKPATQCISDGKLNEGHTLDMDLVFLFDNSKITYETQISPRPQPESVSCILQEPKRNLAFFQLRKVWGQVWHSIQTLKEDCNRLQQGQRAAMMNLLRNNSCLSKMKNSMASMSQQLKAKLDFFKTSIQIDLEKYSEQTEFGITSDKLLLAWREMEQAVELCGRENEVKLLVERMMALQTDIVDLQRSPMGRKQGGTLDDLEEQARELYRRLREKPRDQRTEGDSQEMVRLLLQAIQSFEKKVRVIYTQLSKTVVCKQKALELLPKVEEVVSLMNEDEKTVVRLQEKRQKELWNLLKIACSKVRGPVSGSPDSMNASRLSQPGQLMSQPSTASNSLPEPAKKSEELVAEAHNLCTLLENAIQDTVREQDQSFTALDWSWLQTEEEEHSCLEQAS

A further experiment has as its target T12, PFTAIRE2 (Homo sapiens, UniProt Q96Q40).
T12 construct: purchased Eurofins DiscoverX KINOMEscan

T2 sequence (P29597 556-888 limits assumed): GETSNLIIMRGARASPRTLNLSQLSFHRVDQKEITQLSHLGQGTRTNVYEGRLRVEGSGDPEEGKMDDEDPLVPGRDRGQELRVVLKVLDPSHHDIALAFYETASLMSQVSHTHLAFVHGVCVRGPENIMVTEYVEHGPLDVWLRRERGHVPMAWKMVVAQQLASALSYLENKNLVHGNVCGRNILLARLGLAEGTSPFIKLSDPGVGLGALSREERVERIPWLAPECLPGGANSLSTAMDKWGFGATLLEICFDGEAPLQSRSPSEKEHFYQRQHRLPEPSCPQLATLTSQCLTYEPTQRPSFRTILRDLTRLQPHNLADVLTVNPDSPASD
T4 sequence (Q14289 whole entry): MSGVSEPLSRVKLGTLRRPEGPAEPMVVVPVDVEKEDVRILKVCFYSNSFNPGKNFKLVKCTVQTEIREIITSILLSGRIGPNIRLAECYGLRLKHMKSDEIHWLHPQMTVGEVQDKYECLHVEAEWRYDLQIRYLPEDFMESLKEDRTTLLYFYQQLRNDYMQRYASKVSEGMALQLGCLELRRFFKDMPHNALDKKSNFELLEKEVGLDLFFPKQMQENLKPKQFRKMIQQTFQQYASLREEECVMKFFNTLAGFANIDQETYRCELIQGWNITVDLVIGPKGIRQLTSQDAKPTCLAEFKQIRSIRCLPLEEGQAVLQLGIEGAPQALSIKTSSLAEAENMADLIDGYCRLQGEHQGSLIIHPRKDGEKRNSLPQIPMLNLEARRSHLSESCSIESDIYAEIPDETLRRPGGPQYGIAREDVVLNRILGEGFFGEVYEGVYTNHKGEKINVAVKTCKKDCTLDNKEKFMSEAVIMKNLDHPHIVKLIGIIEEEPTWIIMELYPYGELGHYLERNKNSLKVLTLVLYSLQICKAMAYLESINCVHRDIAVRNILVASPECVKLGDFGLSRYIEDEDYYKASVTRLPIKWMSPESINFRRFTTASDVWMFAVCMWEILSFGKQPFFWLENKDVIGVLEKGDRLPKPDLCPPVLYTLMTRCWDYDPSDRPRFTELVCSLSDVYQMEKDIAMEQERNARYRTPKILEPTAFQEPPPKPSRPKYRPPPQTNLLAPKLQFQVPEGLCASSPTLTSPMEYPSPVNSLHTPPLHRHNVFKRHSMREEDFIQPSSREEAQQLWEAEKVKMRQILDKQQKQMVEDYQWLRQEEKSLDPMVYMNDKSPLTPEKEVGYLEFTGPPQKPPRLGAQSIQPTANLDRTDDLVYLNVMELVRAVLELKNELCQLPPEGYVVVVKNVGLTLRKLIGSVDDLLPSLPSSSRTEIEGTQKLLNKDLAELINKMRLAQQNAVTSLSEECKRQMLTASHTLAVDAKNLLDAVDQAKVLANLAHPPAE
T7 sequence (Q9BQI3 whole entry): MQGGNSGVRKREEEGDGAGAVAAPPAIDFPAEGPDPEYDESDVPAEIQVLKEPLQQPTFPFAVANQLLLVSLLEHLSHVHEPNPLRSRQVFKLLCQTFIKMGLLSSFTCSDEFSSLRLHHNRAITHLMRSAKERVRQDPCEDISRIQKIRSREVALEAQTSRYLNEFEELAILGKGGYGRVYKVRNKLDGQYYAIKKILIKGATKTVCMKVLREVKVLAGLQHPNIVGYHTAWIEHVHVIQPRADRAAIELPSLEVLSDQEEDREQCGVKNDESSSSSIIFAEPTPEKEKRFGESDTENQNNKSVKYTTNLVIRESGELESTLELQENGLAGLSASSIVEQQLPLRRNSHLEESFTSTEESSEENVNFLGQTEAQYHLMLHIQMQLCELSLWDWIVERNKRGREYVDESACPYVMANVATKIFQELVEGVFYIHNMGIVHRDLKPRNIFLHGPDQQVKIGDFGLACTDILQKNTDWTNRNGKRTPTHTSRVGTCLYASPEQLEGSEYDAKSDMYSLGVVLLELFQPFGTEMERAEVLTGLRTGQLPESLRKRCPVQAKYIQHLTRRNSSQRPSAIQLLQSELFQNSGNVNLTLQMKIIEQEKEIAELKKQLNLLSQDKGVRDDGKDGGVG
T1 sequence (Q15418 62-321 limits assumed): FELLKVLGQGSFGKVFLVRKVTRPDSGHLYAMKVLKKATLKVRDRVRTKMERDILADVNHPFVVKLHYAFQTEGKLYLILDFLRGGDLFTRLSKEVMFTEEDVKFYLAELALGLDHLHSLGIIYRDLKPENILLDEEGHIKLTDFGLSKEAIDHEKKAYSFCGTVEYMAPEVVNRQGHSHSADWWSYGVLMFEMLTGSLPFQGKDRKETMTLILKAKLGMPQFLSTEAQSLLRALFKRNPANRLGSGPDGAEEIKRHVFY
T9 sequence (P24723 whole entry): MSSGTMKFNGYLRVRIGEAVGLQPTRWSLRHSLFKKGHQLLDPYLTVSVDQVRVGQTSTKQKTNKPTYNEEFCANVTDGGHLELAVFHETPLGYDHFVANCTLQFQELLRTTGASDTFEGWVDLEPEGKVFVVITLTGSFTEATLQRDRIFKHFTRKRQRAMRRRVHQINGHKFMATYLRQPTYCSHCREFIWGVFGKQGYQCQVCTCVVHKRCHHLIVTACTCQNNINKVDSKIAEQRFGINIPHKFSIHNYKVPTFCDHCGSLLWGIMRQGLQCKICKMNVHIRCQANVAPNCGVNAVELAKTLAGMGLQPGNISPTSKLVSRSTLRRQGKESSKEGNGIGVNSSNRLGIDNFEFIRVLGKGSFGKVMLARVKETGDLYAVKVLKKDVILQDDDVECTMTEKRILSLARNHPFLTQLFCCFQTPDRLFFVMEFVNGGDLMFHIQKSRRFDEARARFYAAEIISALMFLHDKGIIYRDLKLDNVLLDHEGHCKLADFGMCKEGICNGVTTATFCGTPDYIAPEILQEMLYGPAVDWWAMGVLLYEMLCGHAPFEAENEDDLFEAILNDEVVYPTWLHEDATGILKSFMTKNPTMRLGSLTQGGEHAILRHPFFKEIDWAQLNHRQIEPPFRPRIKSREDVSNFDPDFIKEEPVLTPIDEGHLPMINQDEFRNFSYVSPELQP
T12 sequence (Q96Q40 whole entry): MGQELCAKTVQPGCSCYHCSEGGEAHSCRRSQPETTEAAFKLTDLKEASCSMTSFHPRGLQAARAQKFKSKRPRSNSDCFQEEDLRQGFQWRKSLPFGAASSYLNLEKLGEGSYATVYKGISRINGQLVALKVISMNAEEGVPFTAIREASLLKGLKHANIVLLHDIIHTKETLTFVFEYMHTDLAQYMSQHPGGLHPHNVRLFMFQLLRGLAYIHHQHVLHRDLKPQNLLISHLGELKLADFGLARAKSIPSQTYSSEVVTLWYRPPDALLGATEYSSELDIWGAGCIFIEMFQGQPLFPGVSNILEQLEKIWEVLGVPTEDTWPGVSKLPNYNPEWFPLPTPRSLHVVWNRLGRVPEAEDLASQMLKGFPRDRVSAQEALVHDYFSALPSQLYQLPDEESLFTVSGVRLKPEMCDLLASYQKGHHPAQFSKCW
T5 sequence (P42336 whole entry H1047L): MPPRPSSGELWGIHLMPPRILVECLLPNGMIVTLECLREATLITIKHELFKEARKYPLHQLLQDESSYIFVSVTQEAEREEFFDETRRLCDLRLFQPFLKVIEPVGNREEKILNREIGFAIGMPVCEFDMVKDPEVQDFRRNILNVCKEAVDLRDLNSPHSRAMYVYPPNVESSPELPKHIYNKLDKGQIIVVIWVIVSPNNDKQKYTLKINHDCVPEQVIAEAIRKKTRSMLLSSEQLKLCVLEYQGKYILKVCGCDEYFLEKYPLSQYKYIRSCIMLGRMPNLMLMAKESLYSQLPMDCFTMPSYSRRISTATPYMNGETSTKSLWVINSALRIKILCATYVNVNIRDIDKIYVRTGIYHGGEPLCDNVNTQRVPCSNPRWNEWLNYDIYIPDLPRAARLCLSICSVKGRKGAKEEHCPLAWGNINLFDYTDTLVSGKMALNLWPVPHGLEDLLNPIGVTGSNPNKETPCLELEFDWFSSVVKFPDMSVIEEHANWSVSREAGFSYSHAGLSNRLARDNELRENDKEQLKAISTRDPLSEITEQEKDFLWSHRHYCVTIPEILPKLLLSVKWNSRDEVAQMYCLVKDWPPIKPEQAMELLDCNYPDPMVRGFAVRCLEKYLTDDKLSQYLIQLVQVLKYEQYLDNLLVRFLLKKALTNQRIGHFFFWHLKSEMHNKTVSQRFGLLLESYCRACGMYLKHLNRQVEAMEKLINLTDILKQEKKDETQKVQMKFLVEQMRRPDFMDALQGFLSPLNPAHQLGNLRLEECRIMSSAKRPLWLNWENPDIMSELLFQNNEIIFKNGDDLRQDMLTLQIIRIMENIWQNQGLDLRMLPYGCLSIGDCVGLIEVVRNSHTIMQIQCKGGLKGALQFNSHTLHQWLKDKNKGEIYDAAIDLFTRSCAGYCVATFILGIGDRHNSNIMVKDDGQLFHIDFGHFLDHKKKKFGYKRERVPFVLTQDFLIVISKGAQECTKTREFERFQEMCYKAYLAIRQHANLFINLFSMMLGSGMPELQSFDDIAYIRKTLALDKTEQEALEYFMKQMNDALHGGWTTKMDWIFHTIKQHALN
T8 sequence (Q00536 whole entry): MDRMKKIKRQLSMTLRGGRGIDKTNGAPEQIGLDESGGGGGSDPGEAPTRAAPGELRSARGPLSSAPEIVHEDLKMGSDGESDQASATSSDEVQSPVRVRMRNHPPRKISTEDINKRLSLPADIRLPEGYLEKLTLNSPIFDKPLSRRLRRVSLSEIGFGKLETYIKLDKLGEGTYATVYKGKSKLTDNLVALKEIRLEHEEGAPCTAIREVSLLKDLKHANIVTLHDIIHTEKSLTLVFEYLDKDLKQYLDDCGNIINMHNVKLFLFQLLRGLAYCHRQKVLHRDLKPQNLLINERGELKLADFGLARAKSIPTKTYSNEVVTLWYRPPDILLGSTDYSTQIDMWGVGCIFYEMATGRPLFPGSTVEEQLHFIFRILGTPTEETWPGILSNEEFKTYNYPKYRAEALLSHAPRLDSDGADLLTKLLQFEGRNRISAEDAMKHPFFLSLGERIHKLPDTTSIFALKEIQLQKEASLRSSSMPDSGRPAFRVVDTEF

Regarding `Clc1cc(NCC2CC2)c2ncc(-c3ccc4[nH]ncc4c3)n2n1` [compound 2, 6-Chloro-N-(cyclopropylmethyl)-3-(1H-indazol-5-yl)imidazo[1,2-b]pyridazin-8-amine], the remaining binding at 1 µM was 72% in experiment [1]; 91% in [2]; 100% at CSNK1A1L; 84% on PYK2; 95% at PIK3CA(H1047L); 91% at PHKG1. Moreover, the remaining binding at 1 µM at EIF2AK1 amounted to 100%; at PCTK1, 97%; at PRKCH, 96%; on LATS1, 82%; on IKK-beta it was 83%; at PFTAIRE2, 100%.
On to `O=C(CN1CCOCC1)N[C@H]1CC[C@H](Nc2cc(Cl)nn3c(-c4ccc5[nH]ncc5c4)cnc23)CC1` [compound 26], for which the remaining binding at 1 µM amounted to 54% in [1]; 99% in experiment [2]; 88% on CSNK1A1L; 86% on PYK2; 98% on PIK3CA(H1047L); 17% on PHKG1. In addition, the remaining binding at 1 µM at EIF2AK1 was 78%; on PCTK1, 87%; at PRKCH it was 100%; on LATS1, 82%; on IKK-beta, 94%; on PFTAIRE2, 40%.
With `CN1CCC(CNc2cc(Cl)nn3c(-c4cc5nc(Nc6ccccc6)[nH]c5cc4F)cnc23)CC1` [compound 31, 6-Chloro-3-(6-fluoro-2-(phenylamino)-1H-benzo[d]imidazol-5-yl)-N-((1-methylpiperidin-4-yl)methyl)imidazo[1,2-b]pyridazin-8-amine], the remaining binding at 1 µM in [1] was found to be 100%; in [2] it was 73%; on CSNK1A1L, 100%; on PYK2, 99%; at PIK3CA(H1047L) it was 70%; on PHKG1, 92%. Moreover, the remaining binding at 1 µM on EIF2AK1 is 78%; on PCTK1, 37%; on PRKCH it was 100%; at LATS1, 86%; on IKK-beta, 90%; at PFTAIRE2 it was 91%.
